{
  "source": "paper PMC11943725",
  "about": "“Construction of a Plasmid-Free Escherichia coli Strain with Enhanced Heme Supply to Produce Active Hemoglobins” (Metabolites, 2025)",
  "biological_target": "T1, human hemoglobin (hHb) (Homo sapiens, UniProt P68871+P69905)",
  "T1 construct": "gene HBA1; tetramer",
  "T1 sequence (P69905 2-142)": "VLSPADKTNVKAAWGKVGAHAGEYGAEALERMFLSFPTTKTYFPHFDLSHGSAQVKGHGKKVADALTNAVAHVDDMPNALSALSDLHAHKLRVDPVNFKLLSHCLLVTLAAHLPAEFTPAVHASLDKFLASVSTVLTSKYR",
  "T1 sequence (P68871 2-147)": "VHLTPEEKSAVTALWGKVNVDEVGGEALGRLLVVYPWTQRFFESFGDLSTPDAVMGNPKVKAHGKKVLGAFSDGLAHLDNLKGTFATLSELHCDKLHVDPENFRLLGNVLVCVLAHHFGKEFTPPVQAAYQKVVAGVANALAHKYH",
  "assay": "peroxidase activity of purified protein with TMB Chromogen Solution, OD370",
  "type": "biochemical",
  "settings": "chromogenic peroxidase substrate; holo fraction incomplete",
  "data": [
    {"smiles": "Cc1cc(-c2cc(C)c(N)c(C)c2)cc(C)c1N", "note": "[TMB]", "values": [
      {"measurement": "peroxidase activity of purified protein with TMB Chromogen Solution, OD370", "result": "The peroxidase activities of purified proteins were detected using TMB Chromogen Solution"}
    ]}
  ]
}
